Laboratory results from patent US5374645A (Ciba-Geigy Corporation, priority 1993, dated 1994).
Read-outs that look alike come from different tables or passages of the source.

Assays:
Rabbits = settings: rabbit, in vivo
[1] = not given; remark: listed apart in the source

| Structure (SMILES) | classification as primary irritant or corrosive by dermal application (Rabbits) | Terbutaline Flux (pH 3.8) [mcg/cm^2 /hr] | relative flux (flux in water case as unity) (pH 3.8) | Terbutaline Flux (pH 4.4) [mcg/cm^2 /hr] | relative flux (flux in water case as unity) (pH 4.4) | Terbutaline Flux (pH 4.6) [mcg/cm^2 /hr] | relative flux (flux in water case as unity) (pH 4.6) | Terbutaline Flux (pH 4.9) [mcg/cm^2 /hr] | relative flux (flux in water case as unity) (pH 4.9) | Terbutaline Flux (pH 5) [mcg/cm^2 /hr] | relative flux (flux in water case as unity) (pH 5) | Terbutaline Flux ([1]; pH 3.8) [mcg/cm^2 /hr] | relative flux (flux in water case as unity) ([1]; pH 3.8) | Terbutaline Flux ([1]; pH 4.2) [mcg/cm^2 /hr] | relative flux (flux in water case as unity) ([1]; pH 4.2) |
| --- | --- | --- | --- | --- | --- | --- | --- | --- | --- | --- | --- | --- | --- | --- | --- |
| CC(C)O [Isopropanol, isopropanol] | neither pure isopropanol nor aqueous isopropanol are classified as primary irritants or as corrosives |  |  |  |  |  |  |  |  |  |  |  |  |  |  |
| CC(C)(C)NCC(O)c1cc(O)cc(O)c1 (stereo not drawn) [Terbutaline, terbutaline] |  | 0.1 | 1 | 16.3 | 163 | 12.8 | 128 | 16.1 | 161 | 5.3 | 53 | 0.1 | 1 | 4.1 | 40 |
